Target: T1, His tagged full-length PTP1B protein (Homo sapiens, UniProt P18031)
T1 construct: made in house
T1 sequence (P18031 with tags, fused parts or gaps): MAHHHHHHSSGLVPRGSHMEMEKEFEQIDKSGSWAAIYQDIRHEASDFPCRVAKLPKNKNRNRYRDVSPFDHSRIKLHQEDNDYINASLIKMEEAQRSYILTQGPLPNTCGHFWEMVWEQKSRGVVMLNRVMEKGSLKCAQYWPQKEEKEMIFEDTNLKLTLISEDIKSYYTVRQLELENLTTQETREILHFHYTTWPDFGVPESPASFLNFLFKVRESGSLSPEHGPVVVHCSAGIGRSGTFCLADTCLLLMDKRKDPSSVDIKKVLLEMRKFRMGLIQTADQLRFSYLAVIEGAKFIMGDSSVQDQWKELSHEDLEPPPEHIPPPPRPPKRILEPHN
Test: Mobility Shift Assay (MSA) used to determine potency of PTP1B inhibitors
Format: biochemical
Details: Table 2
Protocol: The enzymatic assay used to determine activity is a mobility shift assay using a LabChip EZ Reader by Caliper Life Sciences. The enzymatic reaction was carried out in assay buffer (50 mM HEPES pH 7.5, 1 mM EGTA, 10 mM EDTA, 0.01% Tween® 20, and 2 mM DTT). […] The enzyme (at 0.5 nM) was incubated with compound for 10 minutes at room temperature. […] The % inhibition was then used to calculate the IC50 values.

Row | Structure (SMILES) | IC50
1 | O=C1CN(c2c(O)cc3ccc(-c4cccnc4)cc3c2F)S(=O)(=O)N1 [Compound 266, 5-[1-fluoro-3-hydroxy-7-(pyridin-3-yl)naphthalen-2-yl]-1λ^6,2,5-thiadiazolidine-1,1,3-trione] | > 100 nM
2 | O=C1CN(c2c(O)cc3ccc(CC4CNC4)cc3c2F)S(=O)(=O)N1 [Compound 267, 5-{7-[(azetidin-3-yl)methyl]-1-fluoro-3-hydroxynaphthalen-2-yl}-1λ^6,2,5-thiadiazolidine-1,1,3-trione] | 10 to 100 nM
3 | O=C(CNc1ccc2cc(O)c(N3CC(=O)NS3(=O)=O)c(F)c2c1)NCCC1CC1 [Compound 268, N-(2-cyclopropylethyl)-2-{[8-fluoro-6-hydroxy-7-(1,1,4-trioxo-1λ^6,2,5-thiadiazolidin-2-yl)naphthalen-2-yl]amino}acetamide] | 10 to 100 nM
4 | CNC(=O)CCCOc1ccc2cc(O)c(N3CC(=O)NS3(=O)=O)c(F)c2c1 [Compound 269, 4-{[8-fluoro-6-hydroxy-7-(1,1,4-trioxo-1λ^6,2,5-thiadiazolidin-2-yl)naphthalen-2-yl]oxy}—N-methylbutanamide] | 1 to 10 nM
5 | CCNC(=O)NCCOc1ccc2cc(O)c(N3CC(=O)NS3(=O)=O)c(F)c2c1 [Compound 270, N-ethyl-N′-(2-{[8-fluoro-6-hydroxy-7-(1,1,4-trioxo-1λ^6,2,5-thiadiazolidin-2-yl)naphthalen-2-yl]oxy}ethyl)urea] | 1 to 10 nM
6 | O=C1CN(c2c(O)cc3ccc(OCC4CCOCC4)cc3c2F)S(=O)(=O)N1 [Compound 273, 5-{1-fluoro-3-hydroxy-7-[(oxan-4-yl)methoxy]naphthalen-2-yl}-1λ^6,2,5-thiadiazolidine-1,1,3-trione] | > 100 nM
7 | O=C1CN(c2c(O)cc3ccc(OC4COC4)cc3c2F)S(=O)(=O)N1 [Compound 274, 5-{1-fluoro-3-hydroxy-7-[(oxetan-3-yl)oxy]naphthalen-2-yl}-1λ^6,2,5-thiadiazolidine-1,1,3-trione] | 1 to 10 nM
8 | O=C1CN(c2c(O)cc3ccc(C4=CCN(CC(F)(F)F)CC4)cc3c2F)S(=O)(=O)N1 [Compound 275, 5-{1-fluoro-3-hydroxy-7-[1-(2,2,2-trifluoroethyl)-1,2,3,6-tetrahydropyridin-4-yl]naphthalen-2-yl}-1λ^6,2,5-thiadiazolidine-1,1,3-trione] | 10 to 100 nM
9 | O=C1CN(c2c(O)cc3ccc(O)cc3c2F)S(=O)(=O)N1 [Compound 276, 5-(1-fluoro-3,7-dihydroxynaphthalen-2-yl)-1λ^6,2,5-thiadiazolidine-1,1,3-trione] | > 100 nM
10 | O=C1CN(c2c(O)cc3ccc(OCCO)cc3c2F)S(=O)(=O)N1 [Compound 277, 5-[1-fluoro-3-hydroxy-7-(2-hydroxyethoxy)naphthalen-2-yl]-1λ^6,2,5-thiadiazolidine-1,1,3-trione] | > 100 nM
11 | CCCOc1ccc2cc(O)c(N3CC(=O)NS3(=O)=O)c(F)c2c1 [Compound 278, 5-(1-fluoro-3-hydroxy-7-propoxynaphthalen-2-yl)-1λ^6,2,5-thiadiazolidine-1,1,3-trione] | 10 to 100 nM
12 | CC(C)Oc1ccc2cc(O)c(N3CC(=O)NS3(=O)=O)c(F)c2c1 [Compound 279, 5-{1-fluoro-3-hydroxy-7-[(propan-2-yl)oxy]naphthalen-2-yl}-1λ^6,2,5-thiadiazolidine-1,1,3-trione] | > 100 nM
13 | O=C(O)CNc1ccc2cc(O)c(N3CC(=O)NS3(=O)=O)c(F)c2c1 [Compound 280, {[8-fluoro-6-hydroxy-7-(1,1,4-trioxo-1λ^6,2,5-thiadiazolidin-2-yl)naphthalen-2-yl]amino}acetic acid] | > 100 nM
14 | O=C(COc1ccc2cc(O)c(N3CC(=O)NS3(=O)=O)c(F)c2c1)NCCC1CC1 [Compound 281, N-(2-cyclopropylethyl)-2-{[8-fluoro-6-hydroxy-7-(1,1,4-trioxo-1λ^6,2,5-thiadiazolidin-2-yl)naphthalen-2-yl]oxy}acetamide] | 10 to 100 nM
15 | CCN(CC)C(=O)COc1ccc2cc(O)c(N3CC(=O)NS3(=O)=O)c(F)c2c1 [Compound 282, N,N-diethyl-2-{[8-fluoro-6-hydroxy-7-(1,1,4-trioxo-1λ^6,2,5-thiadiazolidin-2-yl)naphthalen-2-yl]oxy}acetamide] | 10 to 100 nM
16 | O=C1CN(c2c(O)cc3ccc(OCC(=O)N4CCCC4)cc3c2F)S(=O)(=O)N1 [Compound 283, 5-{1-fluoro-3-hydroxy-7-[2-oxo-2-(pyrrolidin-1-yl)ethoxy]naphthalen-2-yl}-1λ^6,2,5-thiadiazolidine-1,1,3-trione] | 10 to 100 nM

Row | Structure (SMILES) | IC50
17 | CS(=O)(=O)N1CCC(Oc2ccc3cc(O)c(N4CC(=O)NS4(=O)=O)c(F)c3c2)CC1 [Compound 284, 5-(1-fluoro-3-hydroxy-7-{[1-(methanesulfonyl)piperidin-4-yl]oxy}naphthalen-2-yl)-1λ^6,2,5-thiadiazolidine-1,1,3-trione] | 1 to 10 nM
18 | COCCS(=O)(=O)N1CC=C(c2ccc3cc(O)c(N4CC(=O)NS4(=O)=O)c(F)c3c2)C1 [Compound 286, 5-{1-fluoro-3-hydroxy-7-[1-(2-methoxyethanesulfonyl)-2,5-dihydro-1H-pyrrol-3-yl]naphthalen-2-yl}-1λ^6,2,5-thiadiazolidine-1,1,3-trione] | < 1 nM
19 | O=C1CN(c2c(O)cc3ccc(C4=CCN(S(=O)(=O)CCC(F)(F)F)C4)cc3c2F)S(=O)(=O)N1 [Compound 287, 5-{1-fluoro-3-hydroxy-7-[1-(3,3,3-trifluoropropane-1-sulfonyl)-2,5-dihydro-1H-pyrrol-3-yl]naphthalen-2-yl}-1λ^6,2,5-thiadiazolidine-1,1,3-trione] | 1 to 10 nM
20 | O=C1CN(c2c(O)cc3ccc(C4=CCN(S(=O)(=O)CCCC(F)(F)F)C4)cc3c2F)S(=O)(=O)N1 [Compound 290, 5-{1-fluoro-3-hydroxy-7-[1-(4,4,4-trifluorobutane-1-sulfonyl)-2,5-dihydro-1H-pyrrol-3-yl]naphthalen-2-yl}-1λ^6,2,5-thiadiazolidine-1,1,3-trione] | < 1 nM
21 | CCCCS(=O)(=O)N1CC=C(c2ccc3cc(O)c(N4CC(=O)NS4(=O)=O)c(F)c3c2)C1 [Compound 291, 5-{7-[1-(butane-1-sulfonyl)-2,5-dihydro-1H-pyrrol-3-yl]-1-fluoro-3-hydroxynaphthalen-2-yl}-1λ^6,2,5-thiadiazolidine-1,1,3-trione] | < 1 nM
22 | N#CCCCCS(=O)(=O)N1CC=C(c2ccc3cc(O)c(N4CC(=O)NS4(=O)=O)c(F)c3c2)C1 [Compound 293, 5-{3-[8-fluoro-6-hydroxy-7-(1,1,4-trioxo-1λ^6,2,5-thiadiazolidin-2-yl)naphthalen-2-yl]-2,5-dihydro-1H-pyrrole-1-sulfonyl}pentanenitrile] | < 1 nM
23 | CCS(=O)(=O)N1CC=C(c2ccc3cc(O)c(N4CC(=O)NS4(=O)=O)c(F)c3c2)C1 [Compound 295, 5-{7-[1-(ethanesulfonyl)-2,5-dihydro-1H-pyrrol-3-yl]-1-fluoro-3-hydroxynaphthalen-2-yl}-1λ^6,2,5-thiadiazolidine-1,1,3-trione] | < 1 nM
24 | CC(C)S(=O)(=O)N1CC=C(c2ccc3cc(O)c(N4CC(=O)NS4(=O)=O)c(F)c3c2)C1 [Compound 296, 5-{1-fluoro-3-hydroxy-7-[1-(propane-2-sulfonyl)-2,5-dihydro-1H-pyrrol-3-yl]naphthalen-2-yl}-1λ^6,2,5-thiadiazolidine-1,1,3-trione] | < 1 nM
25 | O=C1CN(c2c(O)cc3ccc(C4=CCN(S(=O)(=O)C5CC5)CC4)cc3c2F)S(=O)(=O)N1 [Compound 297, 5-{7-[1-(cyclopropanesulfonyl)-1,2,3,6-tetrahydropyridin-4-yl]-1-fluoro-3-hydroxynaphthalen-2-yl}-1λ^6,2,5-thiadiazolidine-1,1,3-trione] | 1 to 10 nM
26 | O=C1CN(c2c(O)cc3ccc(C4CCNCC4)cc3c2F)S(=O)(=O)N1 [Compound 299, 5-[1-fluoro-3-hydroxy-7-(piperidin-4-yl)naphthalen-2-yl]-1λ^6,2,5-thiadiazolidine-1,1,3-trione] | 10 to 100 nM
27 | CC(C)CS(=O)(=O)N1CC=C(c2ccc3cc(O)c(N4CC(=O)NS4(=O)=O)c(F)c3c2)C1 [Compound 300, 5-{1-fluoro-3-hydroxy-7-[1-(2-methylpropane-1-sulfonyl)-2,5-dihydro-1H-pyrrol-3-yl]naphthalen-2-yl}-1λ^6,2,5-thiadiazolidine-1,1,3-trione] | < 1 nM
28 | CCOc1ccc2cc(O)c(N3CC(=O)NS3(=O)=O)c(F)c2c1 [Compound 301, 5-(7-ethoxy-1-fluoro-3-hydroxynaphthalen-2-yl)-1λ^6,2,5-thiadiazolidine-1,1,3-trione] | > 100 nM
29 | O=C1CN(c2c(O)cc3ccc(OCC(F)F)cc3c2F)S(=O)(=O)N1 [Compound 302, 5-[7-(2,2-difluoroethoxy)-1-fluoro-3-hydroxynaphthalen-2-yl]-1λ^6,2,5-thiadiazolidine-1,1,3-trione] | 10 to 100 nM
30 | O=C1CN(c2c(O)cc3ccc(-c4cnn(S(=O)(=O)C5CC5)c4)cc3c2F)S(=O)(=O)N1 [Compound 303, 5-{7-[1-(cyclopropanesulfonyl)-1H-pyrazol-4-yl]-1-fluoro-3-hydroxynaphthalen-2-yl}-1λ^6,2,5-thiadiazolidine-1,1,3-trione] | 1 to 10 nM
31 | CS(=O)(=O)N1CC[C@@H](Nc2ccc3cc(O)c(N4CC(=O)NS4(=O)=O)c(F)c3c2)C1 [Compound 304, 5-(1-fluoro-3-hydroxy-7-{[(3R)-1-(methanesulfonyl)pyrrolidin-3-yl]amino}naphthalen-2-yl)-1λ^6,2,5-thiadiazolidine-1,1,3-trione] | 10 to 100 nM

Reference: patent US20230019236A1, “PROTEIN TYROSINE PHOSPHATASE INHIBITORS AND METHODS OF USE THEREOF” (Calico Life Sciences LLC, priority 2019, published 2023)
